Consider 59 molecules from patent US10070645B2, “N-cycloalkyl-N-{[2-(1-substitutedcycloalkyl)phenyl]methylene}-(thio)carboxamide derivatives” (BAYER CROPSCIENCE AKTIENGESELLSCHAFT, priority 2013, dated 2018).

One may read the chromatographic logP as a lipophilicity value derived from retention on a column. Low values mean a more hydrophilic compound, high ones a more lipophilic compound. In general, logP refers to a log measure of how a compound divides between an organic and an aqueous phase.

The data set in a line: log P by HPLC on a reversed-phase column (C 18), EEC Directive 79/831 Annex V.A8. It is filed as physicochemical. The following applies: for chromatographic logP: reversed-phase HPLC column (C 18). The method, then: In table 1, the log P values were determined in accordance with EEC Directive 79/831 Annex V.A8 by HPLC (High Performance Liquid Chromatography) on a reversed-phase column (C 18), using the method described below:
Temperature: 40° C.; Mobile phases: 0.1% aqueous formic acid and acetonitrile; linear gradient from 10% acetonitrile to 90% acetonitrile.
Calibration was carried out using unbranched alkan-2-ones (comprising 3 to 16 carbon atoms) with known log P values (determination of the log P values by the retention times using linear interpolation between two successive alkanones). lambda-max-values were determined using UV-spectra from 200 nm to 400 nm and the peak values of the chromatographic signals.

The mark [1] stands for this setting: Table 3 (amines of formula II), HPLC C 18, 40° C., 0.1% aqueous formic acid and acetonitrile.
The mark [2] stands for this setting: HPLC, reversed-phase column (C 18), 40° C., 0.1% aqueous formic acid and acetonitrile, linear gradient 10% to 90% acetonitrile.
The mark [3] stands for this setting: HPLC on reversed-phase column (C 18), 40° C., 0.1% aqueous formic acid and acetonitrile, linear gradient 10% to 90% acetonitrile.
Where [4] appears, read: Table 4 (aldehydes of formula IV), HPLC C 18, 40° C., 0.1% aqueous formic acid and acetonitrile.

`C#CC1(c2ccc(Cl)cc2CNC2CC2)CC1` [II.16, N-[5-chloro-2-(1-ethynylcyclopropyl)benzyl]cyclopropanamine]: the chromatographic logP under setting [1] worked out at 1.22.
Take `Cn1nc(C(F)F)c(C(=O)N(Cc2cc(Cl)ccc2C2(C#N)CC2)C2CC2)c1F` [I.094]: under setting [2], the logP came to 3.13.
The same measure, in the same setting: with `Cn1nc(C(F)F)c(C(=O)N(Cc2ccc(F)cc2C2(C)CC2)C2CC2)c1Cl` [I.022] the figure was 4.06.
Regarding `CCC1(c2ccccc2CN(C(=S)c2c(C(F)F)nn(C)c2Cl)C2CC2)CC1` [I.099], the logP under setting [2] is listed as 5.00.
Under setting [1], `CCC1(c2cccc(F)c2CNC2CC2)CC1` [II.31, N-[2-(1-ethylcyclopropyl)-6-fluorobenzyl]cyclopropanamine] showed a chromatographic logP of 1.14.
`Cn1nc(C(F)F)c(C(=O)N(Cc2cc(C(F)(F)F)ccc2C2(C)CC2)C2CC2)c1F` [I.059]: the logP under setting [2] was 4.34.
`Cc1ccc(C2(C)CC2(Cl)Cl)c(CN(C(=O)c2c(C(F)F)nn(C)c2F)C2CC2)c1F` (racemic) [I.179] showed a lipophilicity (logP) under setting [3] of 4.41.
`Cn1nc(C(F)F)c(C(=S)N(Cc2cc(F)c(F)cc2C2(C)CC2)C2CC2)c1Cl` [I.050] registered a logP under setting [2] of 4.90.
For `Cc1ccc(C2(C)CC2)c(CNC2(C)CC2)c1` [II.13, 1-methyl-N-[5-methyl-2-(1-methylcyclopropyl)benzyl]cyclopropanamine], the chromatographic logP under setting [1] was 1.45.
Under setting [4], `Cc1ccc(C2(C)CC2)c(C=O)c1` [IV.12, 5-methyl-2-(1-methylcyclopropyl)benzaldehyde] registered a chromatographic logP of 3.55.
Molecule `Cc1ccc(C2(C)CC2)c(CN(C(=O)c2c(C(F)F)nn(C)c2Cl)C2CC2)c1` [I.072] returned a logP under setting [2] of 4.36.
The same measure, in the same setting: the same measure for `COC1(c2ccccc2CN(C(=O)c2c(C(F)F)nn(C)c2F)C2CC2)CC1` [I.116]: 3.27; for `Cc1ccc(C2(Cl)CC2)c(CN(C(=O)c2c(C(F)F)nn(C)c2F)C2CC2)c1` [I.132]: 3.89; for `Cc1ccc(C2(C3CC3)CC2)c(CN(C(=O)c2c(C(F)F)nn(C)c2F)C2CC2)c1` [I.134]: 4.59.
On the same count and under the same terms, the same measure for `C=C(C)c1ccc(C2(C)CC2)c(CN(C(=O)c2c(C(F)F)nn(C)c2F)C2CC2)c1` [I.083]: 4.67; for `COC1(c2ccc(Cl)cc2CN(C(=O)c2c(C(F)F)nn(C)c2F)C2CC2)CC1` [I.118]: 3.67.
In the case of `CCCC1(c2cc(Cl)ccc2CN(C(=O)c2c(C(F)F)nn(C)c2F)C2CC2)CC1` [I.128], the logP under setting [2] is given as 5.14.
For `Cn1nc(C(F)F)c(C(=O)N(Cc2ccc3c(c2C2(C)CC2)OCO3)C2CC2)c1F` [I.016], the logP under setting [2] was determined as 3.53.
The same measure, in the same setting: the same measure for `Cn1nc(C(F)F)c(C(=O)N(Cc2ccc(-c3ccc(F)c(F)c3)cc2C2(C)CC2)C2CC2)c1F` [I.036]: 5.03.
On to `Cn1nc(C(F)F)c(C(=O)N(Cc2cc(Br)ccc2C2(C(F)F)CC2)C2CC2)c1Cl` [I.147], for which the lipophilicity (logP) under setting [2] was 3.92.
Same read-out and setting: the same measure for `Cn1nc(C(F)F)c(C(=O)N(Cc2ccc(C3=CCOCC3)cc2C2(C)CC2)C2CC2)c1F` [I.037]: 3.94; for `COc1ccc(CN(C(=O)c2c(C(F)F)nn(C)c2Cl)C2CC2)c(C2(C)CC2)c1` [I.029]: 3.83.
`FC(F)C1(c2ccc(Cl)cc2CNC2CC2)CC1` [II.38, N-{5-chloro-2-[1-(difluoromethyl)cyclopropyl]benzyl}cyclopropanamine] registered a chromatographic logP under setting [1] of 1.16.
In the case of `Cn1nc(C(F)F)c(C(=O)N(Cc2ccccc2C2(C(F)F)CC2)C2CC2)c1Cl` [I.143], under setting [2], the logP was found to be 3.46.
Still for that read-out and setting: the same measure for `CCC1(c2cc(C(F)(F)F)ccc2CN(C(=O)c2c(C(F)F)nn(C)c2F)C2CC2)CC1` [I.100]: 4.75.
Regarding `CCC1(c2ccc(C)cc2CNC2CC2)CC1` [II.30, N-[2-(1-ethylcyclopropyl)-5-methylbenzyl]cyclopropanamine], the chromatographic logP under setting [1] was 1.63.
The same measure, in the same setting: with `CC1(c2c(F)cccc2CNC2CC2)CC1` [II.02, N-[3-fluoro-2-(1-methylcyclopropyl)benzyl]cyclopropanamine] the figure was 1.36.
`O=Cc1cc(Cl)ccc1C1(C(F)F)CC1` [IV.20, 5-chloro-2-[1-(difluoromethyl)cyclopropyl]benzaldehyde] came in with a chromatographic logP under setting [4] of 3.04.
Consider `Cn1nc(C(F)F)c(C(=O)N(Cc2cc(F)ccc2C2(C)CC2(Cl)Cl)C2CC2)c1F` (racemic) [I.170], for which, under setting [3], the logP is recorded as 4.09.
`CCC1(c2cccc(F)c2CN(C(=O)c2c(C(F)F)nn(C)c2F)C2CC2)CC1` [I.114] showed a logP under setting [2] of 4.19.
Turning to `Cn1nc(C(F)F)c(C(=S)N(Cc2cc(Cl)ccc2C2(C)CC2)C2CC2)c1F` [I.062], the logP under setting [2] worked out at 4.82.
The same measure, in the same setting: the same measure for `COc1cc(CN(C(=S)c2c(C(F)F)nn(C)c2F)C2CC2)c(C2(C)CC2)cc1OC` [I.055]: 3.96; for `Cn1nc(C(F)F)c(C(=O)N(Cc2cc(-c3cn(C)c4ccccc34)ccc2C2(C)CC2)C2CC2)c1F` [I.082]: 5.00; for `COc1ccc(CN(C(=S)c2c(C(F)F)nn(C)c2Cl)C2CC2)c(C2(C)CC2)c1` [I.031]: 4.51.
The same measure, in the same setting: the same measure for `Cc1ccc(C2(C(C)C)CC2)c(CN(C(=O)c2c(C(F)F)nn(C)c2Cl)C2CC2)c1` [I.136]: 5.11; for `Cn1nc(C(F)F)c(C(=O)N(Cc2cccc(-c3ccccc3)c2C2(C)CC2)C2CC2)c1F` [I.012]: 4.73; for `CCC1(c2ccccc2CN(C(=S)c2c(C(F)F)nn(C)c2F)C2CC2)CC1` [I.098]: 4.85.
On the same count and under the same terms, the same measure for `Cc1cc(CN(C(=O)c2c(C(F)F)nn(C)c2F)C2CC2)c(C2(C)CC2)cc1C` [I.051]: 4.36.
The molecule `CC1(c2ccc(F)cc2CNC2CC2)CC1` [II.11, N-[5-fluoro-2-(1-methylcyclopropyl)benzyl]cyclopropanamine] yielded a chromatographic logP under setting [1] of 1.37.
Under setting [3], `Cn1nc(C(F)F)c(C(=O)N(Cc2c(C3(C)CC3(Cl)Cl)ccc(Cl)c2F)C2CC2)c1Cl` (racemic) [I.175] gave a logP of 4.61.
On to `Cn1nc(C(F)F)c(C(=O)N(Cc2c(C(F)(F)F)cccc2C2(C)CC2)C2CC2)c1F` [I.088], for which the logP under setting [2] was 4.46.
Under setting [2], `Cn1nc(C(F)F)c(C(=O)N(Cc2cc(Cl)ccc2C2(C)CC2)C2CC2)c1F` [I.060, N-[5-chloro-2-(1-methylcyclopropyl)benzyl]-N-cyclopropyl-3-(difluoromethyl)-5-fluoro-1-methyl-1H-pyrazole-4-carboxamide] returned a chromatographic logP of 4.26.
Under setting [2], `CC(C)c1ccc(C2(C)CC2)c(CN(C(=O)c2c(C(F)F)nn(C)c2F)C2CC2)c1` [I.070] gave a logP of 4.61.
The same measure, in the same setting: with `Cn1nc(C(F)F)c(C(=S)N(Cc2ccccc2C2(C)CC2)C2CC2)c1Cl` [I.004] the figure was 4.63; with `C#CC1(c2ccc(Cl)cc2CN(C(=O)c2c(C(F)F)nn(C)c2Cl)C2CC2)CC1` [I.091], 3.89.
As for `Cc1ccc(C2(C(F)F)CC2)c(C=O)c1` [IV.21, 2-[1-(difluoromethyl)cyclopropyl]-5-methylbenzaldehyde], the chromatographic logP under setting [4] came out at 3.01.
`CCC1(c2cc(C(F)(F)F)ccc2CNC2CC2)CC1` [II.24, N-[2-(1-ethylcyclopropyl)-4-(trifluoromethyl)benzyl]cyclopropanamine] returned a chromatographic logP under setting [1] of 1.95.
With `Cc1ccc(C2(C(F)F)CC2)c(CNC2CC2)c1` [II.40, N-{2-[1-(difluoromethyl)cyclopropyl]-5-methylbenzyl}cyclopropanamine], the chromatographic logP under setting [1] worked out at 1.09.
Turning to `C=C(C)c1ccc(Cl)cc1Br` [2-bromo-4-chloro-1-(prop-1-en-2-yl)benzene], the chromatographic logP (preparation examples) came out at 4.91.
Take `Fc1ccc(C2(C(F)F)CC2)c(CNC2CC2)c1` [II.39, N-{2-[1-(difluoromethyl)cyclopropyl]-5-fluorobenzyl}cyclopropanamine]: under setting [1], the logP is listed as 1.08. The molecule also came in with a chromatographic logP (preparation examples) of 1.08.
Molecule `Cn1nc(C(F)F)c(C(=O)N(Cc2cccc(C3=CC4CCC3C4)c2C2(C)CC2)C2CC2)c1F` (stereo not drawn) [I.013] returned a logP under setting [2] of 5.78.
Turning to `C#CC1(c2ccc(C)cc2CN(C(=O)c2c(C(F)F)nn(C)c2Cl)C2CC2)CC1` [I.093], the logP under setting [2] is on record as 3.78.
Same read-out and setting: the same measure for `Cc1ccc(C2(C(C)C)CC2)c(CN(C(=O)c2c(C(F)F)nn(C)c2F)C2CC2)c1` [I.137]: 4.95.
The same measure, in the same setting: with `Cn1nc(C(F)F)c(C(=O)N(Cc2cccc(C3=CCCCC3)c2C2(C)CC2)C2CC2)c1F` [I.014] the figure was 5.59.
`Cn1nc(C(F)F)c(C(=O)N(Cc2c(C3(C)CC3(Cl)Cl)ccc(Cl)c2Cl)C2CC2)c1F` (racemic) [I.173]: the logP under setting [3] worked out at 4.71.
In the case of `CC1(c2c(CNC3CC3)ccc3c2OCO3)CC1` [II.03, N-{[4-(1-methylcyclopropyl)-1,3-benzodioxol-5-yl]methyl}cyclopropanamine], the chromatographic logP under setting [1] turned out to be 1.43.
Under setting [2], `Cn1nc(C(F)F)c(C(=O)N(Cc2cc(Cl)ccc2C2(C(F)F)CC2)C2CC2)c1Cl` [I.148] displayed a logP of 3.85.
Same read-out and setting: the same measure for `CCOC1(c2ccc(C)cc2CN(C(=O)c2c(C(F)F)nn(C)c2Cl)C2CC2)CC1` [I.138]: 4.21.
Under setting [2], `Cn1nc(C(F)F)c(C(=O)N(Cc2ccc(-c3cccc(F)c3)cc2C2(C)CC2)C2CC2)c1F` [I.038] returned a logP of 4.96.
